# In PubChem BioAssay (NCI):
# Several values for one entry are separate records, joined by “and”; a condition that tells them apart may be missing. Equal values may be shown once.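 Five compound concentrations were applied to cells in 96-well plates for 48 hours; endpoints were derived by simple linear interpolation of the resulting dose-response curve. Abbreviation: GI50, concentration required for 50% inhibition of growth. TGI: total growth inhibition.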
# Assays:
# Experiment in all cases: NCI-60 cell line screen, 48 h
# [1] = tested on: ACHN renal
# [2] = tested on: UACC-62 melanoma
# [3] = tested on: OVCAR-8 ovarian
# [4] = tested on: COLO 205 colon
# [5] = tested on: MOLT-4 leukemia
# [6] = tested on: MDA-MB-231 breast
# [7] = tested on: SF-268 CNS
# [8] = tested on: NCI-H460 lung
# [9] = tested on: HT29 colon
# [10] = tested on: EKVX NSCLC
SMILES,TGI [1] [µM],TGI [2],TGI [3],TGI [4],TGI [5],TGI [6] [µM],TGI [7],TGI [8],TGI [9],TGI [10],GI50 [2] [µM],GI50 [6] [µM],GI50 [10],GI50 [1] [µM],GI50 [3] [µM],GI50 [4] [µM],GI50 [5],GI50 [7] [µM],GI50 [8] [µM],GI50 [9] [µM]
O=c1ccc2cc(O)c(O)cc2o1,> 100,> 100 µM,> 100 µM,> 100 µM,> 100 µM,> 100,> 100 µM,> 100 µM,> 100 µM,> 100 µM,,,,,,,,,,
NC(=O)NN=C(CS)CS,,72.5 µM,77.3 µM,46.6 µM,65.8 µM,,> 79.9 µM,59 µM,> 100 µM,33.7 µM,,,,,,,,,,
CN(C)c1ccc(/C=N\NC(=O)CSCC(=O)N/N=C/c2ccc(N(C)C)cc2)cc1,> 100,> 100 µM,> 100 µM,> 100 µM,> 100 µM,58.6,> 100 µM,> 100 µM,> 100 µM,> 100 µM,,,,,,,,,,
N#CC(c1ccccc1)c1nc2ccc(=N)cc-2n(O)c1C(C#N)c1ccccc1 (stereo unspecified),> 100,> 100 µM,> 100 µM,> 100 µM,> 100 µM,,> 100 µM,> 100 µM,> 100 µM,> 100 µM,,,,,,,,,,
CC(=O)C(O)N1C(=O)C=CC1=O (stereo unspecified),,,,,,,17.9 µM and 51.8 µM,25 µM and 34.8 µM and 33.1 µM,,25 µM and 33.5 µM and 12.3 µM,7170,13400,21.2 µM and 18.7 µM,,,,,,,
O=C1c2c(c3c4ccccc4[nH]c3c3ccc4ccccc4c23)C(=O)N1CCN1CCCCC1,2.26,2.59 µM,4.48 µM,8.28 µM,5.35 µM,5.08,> 100 µM,1.45 µM,10.6 µM,> 100 µM,1.21,1.95,13.4 µM,0.335,1.27,1.38,0.354 µM,1.15,0.25,1.72
COc1ccc(N2C(=O)C3c4[nH]c5c(C)cccc5c4C4CCC(C(C)(C)C)CC4C3C2=O)cc1 (stereo unspecified),> 10,> 10 µM,> 10 µM,> 10 µM,> 10 µM,> 10,> 10 µM,6.63 µM,5.86 µM,> 10 µM,,,,,,,,,,
NC(=O)CCCC(NCc1c2ccccc2nc2ccccc12)C(=O)O (stereo unspecified),> 100,,> 100 µM,> 100 µM,66.2 µM,,> 100 µM,> 100 µM,> 100 µM,> 100 µM,,,,,,,,,,
CN(C)CCCNc1ccc2ncn3c4ccccc4c(=O)c1c23,52.5,34.7 µM,20 µM,15 µM,13 µM,,40.4 µM,14.5 µM,19.6 µM,,,,,,,,,,,
CN1CCCCC1CCN1CCCCC1 (stereo unspecified),> 100,> 100 µM,> 100 µM,> 100 µM,> 100 µM,> 100,> 100 µM,> 100 µM,> 100 µM,> 100 µM,,,,,,,,,,
CC12CCC(C(=O)OC1=O)C(C)(C)O2 (stereo unspecified),> 100,> 100 µM,> 100 µM,> 100 µM,> 100 µM,,> 100 µM,> 100 µM,> 100 µM,> 100 µM,,,,,,,,,,
CC1C(O)C2(Oc3cc4c(c5c3[C@@H](CC5O)[C@H]2C)CCC2Cc3nc5c(nc3C[C@@]42C)CC2CCC3C4=C[C@H]6O[C@@]7(O[C@@](C)(CO)C[C@@H]7O)C(C)[C@@]6(O)[C@]4(C)[C@@H](O)CC3[C@]2(C)C5)OC1(C)C (stereo partly specified),,0.231 µM,1.36 µM,0.609 µM,,,0.641 µM,0.386 µM,0.456 µM,> 3.67 µM,,,,,,,,,,
O=NC1C(Cl)C2CC1C1C(Br)C(Br)CC21 (stereo unspecified),> 100,> 100 µM,> 100 µM,> 100 µM,> 100 µM,> 100,> 100 µM,> 100 µM,> 100 µM,> 100 µM,,,,,,,,,,
Cc1c2cc[n+](CCN3CCCCC3)cc2c(C)c2c1[nH]c1ccc(O)cc12,22.9,36.7 µM and 31.2 µM,30.6 µM and 44.7 µM,27.5 µM and > 24.2 µM,8.96 µM and 5.96 µM,34.7,29.6 µM and 25.7 µM,10 µM and > 32.8 µM,28 µM and 47.4 µM,24.6 µM and 51.5 µM,11.4,,7.83 µM,,3.36,2.57,0.267 µM and 0.0385 µM,2.29,0.523,4.67
C/C=C/[P+](c1ccccc1)(c1ccccc1)c1ccccc1,62.5,19.2 µM,17.3 µM,0.285 µM,19.6 µM,14.4,17.1 µM,28.3 µM,12.9 µM,13.5 µM,,,,,,,,,,
COc1ccc(-c2c3c(nc4nc(SCCc5ccccc5)nc(N)c24)CCCC3)cc1OC,> 100,> 100 µM,> 100 µM,> 100 µM,> 100 µM,> 100,> 100 µM,> 100 µM,> 100 µM,> 100 µM,,,,,,,,,,
Cc1cc(NCc2cc(Nc3ccnc4cc(Cl)ccc34)ccc2F)nc(N2CCCC2)n1,,,,,14.3 µM,,,2.96 µM,2.27 µM,11.1 µM,,,2.43 µM,,,,1.95 µM,,1.35,0.877
Cc1ccc(S(=O)(=O)NCCSCCNS(=O)(=O)c2ccc(C)cc2)cc1,> 100,,> 100 µM,> 100 µM,> 100 µM,> 100,> 100 µM,> 100 µM,> 100 µM,,,,,,,,,,,
CN(C)CCNc1nc(-c2ccc3ccccc3c2)nc2nc[nH]c12,11.9,22.9 µM,24.4 µM,21.7 µM,18.6 µM,26.5,25.1 µM,15.6 µM,16.4 µM,19.8 µM,,,,,,,,,,
Cc1sc(Cc2ccccc2)nc1-c1ccc(N)cc1,> 100,37.8 µM,> 100 µM,56.2 µM,51.1 µM,84.8,> 100 µM,50.2 µM,54.8 µM,> 100 µM,,,,,,,,,,
COc1ccc([C@@H]2ON(C)[C@H]3CN(C)C(=O)[C@@H]23)cc1,> 100,,> 100 µM,> 100 µM,> 100 µM,> 100,,> 100 µM,> 100 µM,,,,,,,,,,,
